These results are taken from publication PMC7072451, “Membrane Binding of Neuronal Calcium Sensor-1: Highly Specific Interaction with Phosphatidylinositol-3-Phosphate” (Biomolecules, 2020).

This test deals with T1, myristoylated NCS-1 (NCS-1^WT) (Homo sapiens, UniProt P62166).
T1 construct: gene NCS1; full-length, N-myristoylated by co-expressed yeast NMT in E. coli (pET22b+), sulfo-cyanine-3 maleimide labelled; unlabelled protein used as titrant
The experiment in a line: fluorescence correlation spectroscopy, titration of PI liposomes with unlabelled protein. It counts as binding. The settings on record: Ca2+ present (1 mM CaCl2), pH 8.0, 100 mM NaCl; multilamellar liposomes of brain PI; concentration is of the protein; highly cooperative; sulfo-cyanine-3 labelled protein; read-out: dissociation constant.

T1 sequence (P62166 2-190): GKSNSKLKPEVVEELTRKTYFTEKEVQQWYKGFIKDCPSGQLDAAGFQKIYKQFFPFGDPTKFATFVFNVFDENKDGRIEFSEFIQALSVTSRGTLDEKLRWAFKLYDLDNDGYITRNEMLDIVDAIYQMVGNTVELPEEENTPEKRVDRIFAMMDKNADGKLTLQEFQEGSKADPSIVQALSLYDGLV

As for phosphatidylinositol, the Kd came out at 3 µM.
